Data from ChEMBL document CHEMBL3046635, “Synthesis and Herbicidal Activity of New Pyrazole-4-carboxamide Derivatives” (J Pestic Sci, 2004).
The source made the active and inactive calls.

What was measured:
[1] = test system: Pontederia vaginalis; assay: Pre-emergence herbicidal activity against Monochoria vaginalis at 2000 g a.i/ha measured after 14 days; format: functional, organism-based
[2] = test system: Ammannia multiflora; assay: Pre-emergence herbicidal activity against Ammannia multiflora assessed as bleaching of stem/leaf parts; format: functional, organism-based
[3] = test system: Schoenoplectiella juncoides; assay: Post-emergence herbicidal activity against Schoenoplectiella juncoides assessed as bleaching of stem/leaf parts; format: functional, organism-based; also: test concentration or dose not given here
[4] = test system: Rotala indica; assay: Pre-emergence herbicidal activity against Rotala indica assessed as bleaching of stem/leaf parts; format: functional, organism-based
[5] = test system: Elatine triandra; assay: Pre-emergence herbicidal activity against Elatine triandra assessed as bleaching of stem/leaf parts; format: functional, organism-based
[6] = test system: Cyperus difformis; assay: Post-emergence herbicidal activity against Cyperus difformis assessed as bleaching of stem/leaf parts; format: functional, organism-based; also: test concentration or dose not given here
[7] = test system: Rotala indica; assay: Post-emergence herbicidal activity against Rotala indica assessed as bleaching of stem/leaf parts; format: functional, organism-based; also: test concentration or dose not given here
[8] = test system: Pontederia vaginalis; assay: Post-emergence herbicidal activity against Monochoria vaginalis assessed as bleaching of stem/leaf parts; format: functional, organism-based; also: test concentration or dose not given here
[9] = test system: Lindernia procumbens; assay: Pre-emergence herbicidal activity against Lindernia procumbens assessed as bleaching of stem/leaf parts; format: functional, organism-based
[10] = test system: Pontederia vaginalis; assay: Pre-emergence herbicidal activity against Monochoria vaginalis assessed as bleaching of stem/leaf parts; format: functional, organism-based
[11] = test system: Lindernia procumbens; assay: Post-emergence herbicidal activity against Lindernia procumbens assessed as bleaching of stem/leaf parts; format: functional, organism-based; also: test concentration or dose not given here
[12] = test system: Schoenoplectiella juncoides; assay: Pre-emergence herbicidal activity against Schoenoplectiella juncoides assessed as bleaching of stem/leaf parts; format: functional, organism-based
[13] = test system: Cyperus difformis; assay: Pre-emergence herbicidal activity against Cyperus difformis assessed as bleaching of stem/leaf parts; format: functional, organism-based
[14] = test system: Eleocharis acicularis; assay: Pre-emergence herbicidal activity against Eleocharis acicularis assessed as bleaching of stem/leaf parts; format: functional, organism-based
[15] = test system: Elatine triandra; assay: Pre-emergence herbicidal activity against Elatine triandra at 2000 g a.i/ha measured after 14 days; format: functional, organism-based
[16] = test system: Eleocharis acicularis; assay: Pre-emergence herbicidal activity against Eleocharis acicularis at 2000 g a.i/ha measured after 14 days; format: functional, organism-based
[17] = test system: Echinochloa oryzicola; assay: Post-emergence herbicidal activity against Echinochloa oryzicola assessed as bleaching of stem/leaf parts; format: functional, organism-based; also: test concentration or dose not given here
[18] = test system: Ammannia multiflora; assay: Pre-emergence herbicidal activity against Ammannia multiflora at 2000 g a.i/ha measured after 14 days; format: functional, organism-based
[19] = test system: Echinochloa oryzicola; assay: Pre-emergence herbicidal activity against Echinochloa oryzicola at 2000 g a.i/ha measured after 14 days; format: functional, organism-based
[20] = test system: Ammannia multiflora; assay: Post-emergence herbicidal activity against Ammannia multiflora assessed as bleaching of stem/leaf parts; format: functional, organism-based; also: test concentration or dose not given here
[21] = test system: Eleocharis acicularis; assay: Post-emergence herbicidal activity against Eleocharis acicularis assessed as bleaching of stem/leaf parts; format: functional, organism-based; also: test concentration or dose not given here
[22] = test system: Lindernia procumbens; assay: Pre-emergence herbicidal activity against Lindernia procumbens at 2000 g a.i/ha measured after 14 days; format: functional, organism-based
[23] = test system: Oryza sativa; assay: Phytotoxicity against Oryza sativa cv. Koshihikari (rice) at 2000 g a.i/ha measured after 14 days; format: organism-based; settings: in vivo, 336 h
[24] = test system: Cyperus difformis; assay: Pre-emergence herbicidal activity against Cyperus difformis at 2000 g a.i/ha measured after 14 days; format: functional, organism-based
[25] = test system: Echinochloa oryzicola; assay: Pre-emergence herbicidal activity against Echinochloa oryzicola assessed as bleaching of stem/leaf parts; format: functional, organism-based
[26] = test system: Rotala indica; assay: Pre-emergence herbicidal activity against Rotala indica at 2000 g a.i/ha measured after 14 days; format: functional, organism-based
[27] = test system: Elatine triandra; assay: Post-emergence herbicidal activity against Elatine triandra assessed as bleaching of stem/leaf parts; format: functional, organism-based; also: test concentration or dose not given here
[28] = test system: Schoenoplectiella juncoides; assay: Pre-emergence herbicidal activity against Schoenoplectiella juncoides at 2000 g a.i/ha measured after 14 days; format: functional, organism-based

| Structure (SMILES) | Activity [1] | Activity [2] | Activity [3] | Activity [4] | Activity [5] | Activity [6] | Activity [7] | Activity [8] | Activity [9] | Activity [10] | Activity [11] | Activity [12] | Activity [13] | Activity [14] | Activity [15] | Activity [16] | Activity [17] | Activity [18] | Activity [19] | Activity [20] | further results |
| --- | --- | --- | --- | --- | --- | --- | --- | --- | --- | --- | --- | --- | --- | --- | --- | --- | --- | --- | --- | --- | --- |
| CCCN(CC)C(=O)c1cn(C)nc1OC | inactive | Active | Active | Active | Active | Active | Active | Active | Active | Active | Active | Active | Active | Active | inactive | inactive | Active | inactive | inactive | Active | Activity [21]: Active; Activity [22]: inactive; Activity [23]: Non-toxic; Activity [24]: inactive; Activity [25]: Active; Activity [26]: inactive; Activity [27]: Active; Activity [28]: inactive |
| CCCN(CC)C(=O)c1cn(C)nc1OCc1ccc(C(F)(F)F)cc1 | Active | Active | Active | Active | Active | Active | Active | Active | Active | Active | Active | Active | Active | Active | Active | inactive | Active | Active | inactive | Active | Activity [21]: Active; Activity [22]: Active; Activity [23]: Non-toxic; Activity [24]: inactive; Activity [25]: Active; Activity [26]: Active; Activity [27]: Active; Activity [28]: Active |
| CCCN(CC)C(=O)c1cn(C)nc1OCc1cccc(C#N)c1 | inactive | Active | Active | Active | Active | Active | Active | Active | Active | Active | Active | Active | Active | Active | inactive | inactive | Active | inactive | inactive | Active | Activity [21]: Active; Activity [22]: inactive; Activity [23]: Non-toxic; Activity [24]: inactive; Activity [25]: Active; Activity [26]: inactive; Activity [27]: Active; Activity [28]: inactive |
| CCCN(CC)C(=O)c1cn(C)nc1OCc1ccc(C)cc1 | inactive | Active | Active | Active | Active | Active | Active | Active | Active | Active | Active | Active | Active | Active | inactive | inactive | Active | inactive | inactive | Active | Activity [21]: Active; Activity [22]: inactive; Activity [23]: Non-toxic; Activity [24]: inactive; Activity [25]: Active; Activity [26]: inactive; Activity [27]: Active; Activity [28]: inactive |
